According to article PMC9221290, “Alkaloids of Dicranostigma franchetianum (Papaveraceae) and Berberine Derivatives as a New Class of Antimycobacterial Agents” (Biomolecules, 2022):
Converted amounts (≈) assume the structure as drawn. Like-named read-outs stand apart in the source and are kept apart here.

How the values were obtained:
in vitro = conditions: human, % of cell viability compared to control; for viability at 1 µM: HepG2, 1 µM; for viability at 5 µM: HepG2, 5 µM; for viability at 10 µM: HepG2, 10 µM; for viability at 100 µM: HepG2, 100 µM; for viability at 25 µM: HepG2, 25 µM; for viability at 50 µM: HepG2, 50 µM; for viability at 75 µM: HepG2, 75 µM
[1] = system: Mycobacterium kansasii DSM 44162 (ATCC 12478); experiment: Antimycobacterial microdilution broth assay (resazurin), M. kansasii; assay type: cell-based; conditions: 96 h; for MIC: Mycobacterium kansasii, read-out: MIC M. kansasii, microdilution broth, resazurin, 96 h
[2] = system: Mtb H37Ra ITM-M006710 (ATCC 9431); experiment: Antimycobacterial microdilution broth assay (resazurin), Mtb H37Ra; assay type: cell-based, Mycobacterium tuberculosis
[3] = system: Mycolicibacterium aurum DSM 43999 (ATCC 23366); experiment: Antimycobacterial microdilution broth assay (resazurin), M. aurum; assay type: cell-based; conditions: 72 h; for MIC: Mycolicibacterium aurum, read-out: MIC M. aurum, microdilution broth, resazurin, 72 h; for MIC M. aurum: microdilution broth, resazurin
[4] = system: Mycolicibacterium smegmatis DSM 43465 (ATCC 607); experiment: Antimycobacterial microdilution broth assay (resazurin), M. smegmatis; assay type: cell-based; conditions: 48 h; for MIC: Mycolicibacterium smegmatis, read-out: MIC M. smegmatis, microdilution broth, resazurin, 48 h; for MIC M. smegmatis: microdilution broth, resazurin
HepG2 cells [5] = experiment: cells; conditions: Homo sapiens, HepG2, 24 h
[6] = system: Mycobacterium avium DSM 44156 (ATCC 25291); experiment: Antimycobacterial microdilution broth assay (resazurin), M. avium; assay type: cell-based; conditions: 96 h; for MIC: Mycobacterium avium, read-out: MIC M. avium, microdilution broth, resazurin, 96 h; for MIC M. avium: microdilution broth, resazurin
HepG2 cells [7] = system: HepG2 cells
[8] = Mycobacterium tuberculosis, 120 h, microdilution broth, resazurin, 120 h, read-out: MIC Mtb H37Ra
[9] = Mycobacterium tuberculosis, calculated from MIC (µg/mL) and MW, read-out: MIC Mtb H37Ra
[10] = read-out: HepG2 IC50, 1. measurement, MTT, 24 h, single measurement 1
[11] = read-out: HepG2 IC50, 2. measurement, MTT, 24 h, single measurement 2
[12] = read-out: HepG2 IC50, 3. measurement, MTT, 24 h, single measurement 3
[13] = read-out: HepG2 IC50, MTT, 24 h incubation
[14] = microdilution broth, resazurin, 120 h
[15] = Mycobacterium tuberculosis, 120 h, read-out: MIC Mtb H37Ra, microdilution broth, resazurin, 120 h
[16] = Mycobacterium tuberculosis, read-out: MIC Mtb H37Ra (µM), calculated from MIC (µg/mL) and MW

COc1ccc2cc3[n+](cc2c1OCc1ccccc1)CCc1cc2c(cc1-3)OCO2 [16a, 9-O-benzylberberine chloride]
viability at 1 µM (in vitro; 1. measurement): 93.4%
viability at 5 µM (in vitro; 1. measurement): 81.9%
viability at 10 µM (in vitro; 1. measurement): 68.9%
viability at 20 µM (in vitro; 1. measurement, HepG2, 20 µM): 59.4%
viability at 40 µM (in vitro; 1. measurement, HepG2, 40 µM): 56.2%
viability at 60 µM (in vitro; 1. measurement, HepG2, 60 µM): 41.5%
viability at 80 µM (in vitro; 1. measurement, HepG2, 80 µM): 20.2%
viability at 100 µM (in vitro; 1. measurement): 8.76%
viability at 1 µM (in vitro; 2. measurement): 87.9%
viability at 5 µM (in vitro; 2. measurement): 73%
viability at 10 µM (in vitro; 2. measurement): 59.2%
viability at 25 µM (in vitro; 2. measurement): 48.9%
viability at 50 µM (in vitro; 2. measurement): 42.1%
viability at 75 µM (in vitro; 2. measurement): 31.1%
viability at 100 µM (in vitro; 2. measurement): 16.6%
viability at 1 µM (in vitro; 3. measurement): 96.4%
viability at 5 µM (in vitro; 3. measurement): 76.4%
viability at 10 µM (in vitro; 3. measurement): 60.7%
viability at 25 µM (in vitro; 3. measurement): 50.3%
viability at 50 µM (in vitro; 3. measurement): 44.9%
viability at 75 µM (in vitro; 3. measurement): 29.6%
viability at 100 µM (in vitro; 3. measurement): 15.3%
MIC [1]: 6.25 µg/mL
MIC [2, 8]: 6.25 µg/mL
MIC [2, 9]: 13.9 µM
MIC [3]: 3.12 µg/mL
MIC [4]: 0.78 µg/mL
IC50 (HepG2 cells [5]; [10]): 29.1 µM
IC50 (HepG2 cells [5]; [11]): 20.8 µM
IC50 (HepG2 cells [5]; [12]): 23.5 µM
IC50 (HepG2 cells [5]; [13]): 24.5 ± 4.25 µM
MIC [6]: 3.12 µg/mL
SI (selectivity index) (HepG2 cells [7]): 1.76

COc1ccc2cc3[n+](cc2c1OCc1ccccc1C)CCc1cc2c(cc1-3)OCO2 [16b, 9-O-(2-methylbenzyl)berberine chloride]
viability at 1 µM (in vitro; 1. measurement): 96%
viability at 5 µM (in vitro; 1. measurement): 83.6%
viability at 10 µM (in vitro; 1. measurement): 73%
viability at 25 µM (in vitro; 1. measurement): 48.6%
viability at 50 µM (in vitro; 1. measurement): 41.5%
viability at 75 µM (in vitro; 1. measurement): 39.3%
viability at 100 µM (in vitro; 1. measurement): 37.5%
viability at 1 µM (in vitro; 2. measurement): 97.8%
viability at 5 µM (in vitro; 2. measurement): 87.1%
viability at 10 µM (in vitro; 2. measurement): 76.6%
viability at 25 µM (in vitro; 2. measurement): 51.6%
viability at 50 µM (in vitro; 2. measurement): 42.5%
viability at 75 µM (in vitro; 2. measurement): 41.1%
viability at 100 µM (in vitro; 2. measurement): 33.8%
viability at 0.1 µM (in vitro; 3. measurement, HepG2, 0.1 µM): 99.5%
viability at 1 µM (in vitro; 3. measurement): 99.4%
viability at 5 µM (in vitro; 3. measurement): 88.8%
viability at 10 µM (in vitro; 3. measurement): 76.5%
viability at 25 µM (in vitro; 3. measurement): 51.6%
viability at 50 µM (in vitro; 3. measurement): 44.9%
viability at 75 µM (in vitro; 3. measurement): 42.6%
viability at 100 µM (in vitro; 3. measurement): 38.5%
MIC [1]: 3.91 µg/mL
MIC [2, 8]: 7.81 µg/mL
MIC [2, 9]: 16.9 µM
MIC [3]: 7.81 µg/mL
MIC [4]: 1.95 µg/mL
IC50 (HepG2 cells [5]; [10]): 36 µM
IC50 (HepG2 cells [5]; [11]): 38.6 µM
IC50 (HepG2 cells [5]; [12]): 43.2 µM
IC50 (HepG2 cells [5]; [13]): 39.3 ± 3.62 µM
MIC [6]: 3.91 µg/mL
SI (selectivity index) (HepG2 cells [7]): 2.32

O=C(O)c1cn(C2CC2)c2cc(N3CCNCC3)c(F)cc2c1=O [ciprofloxacin, reference compound]
MIC [1]: 0.25 µg/mL (≈ 0.754 µM)
MIC [2, 8]: 0.125 to 0.25 µg/mL
MIC [2, 9]: 0.75 µM
MIC Mtb H37Ra [2, 14]: 0.25 µg/mL (≈ 0.754 µM)
MIC M. aurum [3]: 0.01562 µg/mL (≈ 0.0471 µM)
MIC M. aurum ([3]; listed as CPX): 0.0078 to 0.0156 µg/mL
MIC [4]: 0.0625 to 0.125 µg/mL (≈ 0.189 to 0.377 µM)
MIC M. smegmatis [4]: 0.0625 µg/mL (≈ 0.189 µM)
MIC [6]: 0.5 µg/mL (≈ 1.51 µM)

CN1Cc2c(ccc3c2OCO3)-c2ccc3cc4c(cc3c21)OCO4 [compound 1, dihydrosanguinarine]
MIC [1]: 125 µg/mL (≈ 375 µM)
MIC [2, 8]: ≥ 500 µg/mL
MIC [2, 9]: ≥ 1500 µM
MIC [3]: ≥ 500 µg/mL
MIC [4]: ≥ 500 µg/mL
MIC [6]: ≥ 500 µg/mL

COc1ccc2c(c1OC)CN(C)c1c-2ccc2cc3c(cc12)OCO3 [compound 2, dihydrochelerythrine]
MIC [1]: 250 µg/mL (≈ 716 µM)
MIC [2, 8]: 250 µg/mL
MIC [2, 9]: 716 µM
MIC [3]: 250 µg/mL (≈ 716 µM)
MIC [4]: ≥ 500 µg/mL
MIC [6]: 62.5 µg/mL (≈ 179 µM)

c1cc2c(c3c1C[C@H]1c4cc5c(cc4CCN1C3)OCO5)OCO2 [compound 4, stylopine]
MIC [1]: ≥ 125 µg/mL
MIC [2, 8]: ≥ 125 µg/mL
MIC [2, 9]: ≥ 387 µM
MIC [3]: ≥ 125 µg/mL
MIC [4]: ≥ 125 µg/mL
MIC [6]: ≥ 125 µg/mL

COc1ccc2c(c1OC)CN(C)CCc1cc3c(cc1C(=O)C2)OCO3 [compound 7, allocryptopine]
MIC [1]: 250 µg/mL (≈ 677 µM)
MIC [2, 8]: ≥ 250 µg/mL
MIC [2, 9]: ≥ 678 µM
MIC [3]: ≥ 250 µg/mL
MIC [4]: ≥ 250 µg/mL
MIC [6]: ≥ 250 µg/mL

COc1cc2c(cc1OC)C(=O)Cc1ccc3c(c1CN(C)CC2)OCO3 [compound 8, cryptopine]
MIC [1]: ≥ 125 µg/mL
MIC [2, 8]: ≥ 125 µg/mL
MIC [2, 9]: ≥ 339 µM
MIC [3]: ≥ 125 µg/mL
MIC [4]: ≥ 125 µg/mL
MIC [6]: ≥ 125 µg/mL

COc1ccc2c(c1O)-c1c(OC)c(OC)cc3c1[C@H](C2)N(C)CC3 [compound 10, isocorydine]
MIC [1]: 125 µg/mL (≈ 366 µM)
MIC [2, 8]: ≥ 500 µg/mL
MIC [2, 9]: ≥ 1430 µM
MIC [3]: ≥ 500 µg/mL
MIC [4]: ≥ 500 µg/mL
MIC [6]: ≥ 500 µg/mL

COc1cc2c(cc1OC)-c1c(OC)c(OC)cc3c1[C@H](C2)N(C)CC3 [compound 11, glaucine]
MIC [1]: 62.5 µg/mL (≈ 176 µM)
MIC [2, 15]: 125 µg/mL
MIC [2, 16]: ≥ 352 µM
MIC [3]: 125 µg/mL (≈ 352 µM)
MIC [4]: ≥ 250 µg/mL
MIC [6]: 125 µg/mL (≈ 352 µM)

COc1cc2c3c(c1O)-c1c(ccc(OC)c1OC)C[C@@H]3N(C)CC2 [compound 12, corydine]
MIC [1]: 250 µg/mL (≈ 732 µM)
MIC [2, 8]: ≥ 500 µg/mL
MIC [2, 9]: ≥ 1470 µM
MIC [3]: 250 µg/mL (≈ 732 µM)
MIC [4]: ≥ 500 µg/mL
MIC [6]: 62.5 µg/mL (≈ 183 µM)

COc1cc2c(cc1O)[C@@H]1Cc3ccc(OC)c(OC)c3CN1CC2 [compound 13, isocorypalmine]
MIC [1]: ≥ 250 µg/mL
MIC [2, 15]: ≥ 250 µg/mL
MIC [2, 16]: ≥ 733 µM
MIC [3]: ≥ 250 µg/mL
MIC [4]: ≥ 250 µg/mL
MIC [6]: ≥ 250 µg/mL

COc1cc2c(cc1O)[C@@H]1Cc3ccc(OC)c(O)c3CN1CC2 [compound 15, scoulerine]
MIC [1]: 15.6 µg/mL (≈ 47.7 µM)
MIC [2, 8]: 250 µg/mL
MIC [2, 9]: 764 µM
MIC [3]: 125 µg/mL (≈ 382 µM)
MIC [4]: 125 µg/mL (≈ 382 µM)
MIC [6]: 250 µg/mL (≈ 764 µM)

COc1cccc2c1C(=O)c1c(O)c3c(c(O)c1C2=O)C[C@@](O)(C(=O)CO)C[C@@H]3O[C@H]1C[C@H](N)[C@H](O)[C@H](C)O1 [doxorubicine, reference compound]
IC50 (HepG2 cells [5]; [13]): 30.4 ± 1.74 µM

NNC(=O)c1ccncc1 [isoniazid, reference compound]
MIC [1]: 3.12 to 6.25 µg/mL (≈ 22.8 to 45.6 µM)
MIC M. kansasii ([1]; microdilution broth, resazurin): 6.25 µg/mL (≈ 45.6 µM)
MIC [2, 8]: 0.125 to 0.25 µg/mL
MIC [2, 9]: 1.82 µM
MIC Mtb H37Ra [2, 14]: 0.25 µg/mL (≈ 1.82 µM)
MIC M. aurum [3]: 3.91 µg/mL (≈ 28.5 µM)
MIC M. aurum ([3]; listed as INH): 1.95 to 3.91 µg/mL
MIC [4]: 15.6 to 31.2 µg/mL (≈ 114 to 228 µM)
MIC M. smegmatis [4]: 31.25 µg/mL (≈ 228 µM)
MIC [6]: 500 to 1000 µg/mL (≈ 3650 to 7290 µM)
MIC M. avium [6]: 500 µg/mL (≈ 3650 µM)

CO[C@H]1/C=C/O[C@@]2(C)Oc3c(C)c(O)c4c(O)c(c(/C=N/N5CCN(C)CC5)c(O)c4c3C2=O)NC(=O)/C(C)=C\C=C\[C@H](C)[C@H](O)[C@@H](C)[C@@H](O)[C@@H](C)[C@H](OC(C)=O)[C@@H]1C [rifampicin, reference compound]
MIC [2, 16]: 0.0075 µM
MIC Mtb H37Ra ([2]; microdilution broth, resazurin, 120 h, listed as RIF): 0.00156 to 0.0031 µg/mL
MIC [3]: 0.39 to 0.78 µg/mL (≈ 0.474 to 0.948 µM)
MIC M. aurum [3]: 0.39 µg/mL (≈ 0.474 µM)

protopine [compound 6]
MIC ([2]; calculated from MIC (µg/mL) and MW, read-out: MIC Mtb H37Ra): ≥1416 µM
MIC Mtb H37Ra [2, 14]: ≥500 µg/mL
MIC M. aurum [3]: ≥500 µg/mL
MIC M. smegmatis [4]: ≥500 µg/mL
MIC M. avium [6]: 250 µg/mL
